Data set [1] is described as follows: Clearance in ICR mouse at 5 mg/kg, po via gavage by LC/MS/MS analysis. The data set is classed as ADME, organism-based. Particulars: in vivo.
For data set [2], the target named is Protein kinase C alpha type (Homo sapiens) (UniProt P17252). Kind of data set: Inhibition of PKCalpha (unknown origin) at 1 uM after 60 mins by Z-LYTE assay relative to control.
Data set [3] deals with Glycogen synthase kinase-3 beta (Homo sapiens) (UniProt P49841). Kind of data set: Inhibition of GSK3beta (unknown origin) at 1 uM after 60 mins by Z-LYTE assay relative to control.
Sequence of Glycogen synthase kinase-3 beta (Homo sapiens) (P49841 whole entry, looked up): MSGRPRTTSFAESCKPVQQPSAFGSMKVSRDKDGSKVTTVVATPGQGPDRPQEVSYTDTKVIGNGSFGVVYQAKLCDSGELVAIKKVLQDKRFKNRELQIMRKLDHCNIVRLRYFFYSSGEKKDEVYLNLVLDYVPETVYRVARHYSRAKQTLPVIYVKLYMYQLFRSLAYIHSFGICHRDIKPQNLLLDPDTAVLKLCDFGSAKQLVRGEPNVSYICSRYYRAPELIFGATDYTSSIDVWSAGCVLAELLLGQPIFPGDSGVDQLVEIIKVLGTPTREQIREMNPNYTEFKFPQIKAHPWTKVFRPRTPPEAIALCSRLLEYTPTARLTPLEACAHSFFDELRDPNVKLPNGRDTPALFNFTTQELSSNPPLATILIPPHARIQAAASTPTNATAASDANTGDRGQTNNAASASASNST
Data set [4] concerns PBMC. Kind of data set: Effect on IL6-induced MCP1 production in human PBMC at 100 to 6000 nM preincubated for 2 hrs followed by IL6 stimulation measured after 24 hrs by ELISA. The data set is classed as functional, cell-based. For orientation: ELISA stands for enzyme-linked immunosorbent assay.
The species named for data set [5] is Homo sapiens. Put plainly: Inhibition of IL10/JAK/STAT3 signaling in human PBMC assessed as reduction in LPS-induced TNFalpha production at 100 nM preincubated for 2 hrs followed by LPS stimulation measured after 24 hrs by ELISA.
For data set [6], the target named is Epidermal growth factor receptor (Homo sapiens) (UniProt P00533). Kind of data set: Inhibition of EGFR (unknown origin) at 1 uM after 60 mins by Z-LYTE assay.
Sequence of Epidermal growth factor receptor (Homo sapiens) (P00533 whole entry): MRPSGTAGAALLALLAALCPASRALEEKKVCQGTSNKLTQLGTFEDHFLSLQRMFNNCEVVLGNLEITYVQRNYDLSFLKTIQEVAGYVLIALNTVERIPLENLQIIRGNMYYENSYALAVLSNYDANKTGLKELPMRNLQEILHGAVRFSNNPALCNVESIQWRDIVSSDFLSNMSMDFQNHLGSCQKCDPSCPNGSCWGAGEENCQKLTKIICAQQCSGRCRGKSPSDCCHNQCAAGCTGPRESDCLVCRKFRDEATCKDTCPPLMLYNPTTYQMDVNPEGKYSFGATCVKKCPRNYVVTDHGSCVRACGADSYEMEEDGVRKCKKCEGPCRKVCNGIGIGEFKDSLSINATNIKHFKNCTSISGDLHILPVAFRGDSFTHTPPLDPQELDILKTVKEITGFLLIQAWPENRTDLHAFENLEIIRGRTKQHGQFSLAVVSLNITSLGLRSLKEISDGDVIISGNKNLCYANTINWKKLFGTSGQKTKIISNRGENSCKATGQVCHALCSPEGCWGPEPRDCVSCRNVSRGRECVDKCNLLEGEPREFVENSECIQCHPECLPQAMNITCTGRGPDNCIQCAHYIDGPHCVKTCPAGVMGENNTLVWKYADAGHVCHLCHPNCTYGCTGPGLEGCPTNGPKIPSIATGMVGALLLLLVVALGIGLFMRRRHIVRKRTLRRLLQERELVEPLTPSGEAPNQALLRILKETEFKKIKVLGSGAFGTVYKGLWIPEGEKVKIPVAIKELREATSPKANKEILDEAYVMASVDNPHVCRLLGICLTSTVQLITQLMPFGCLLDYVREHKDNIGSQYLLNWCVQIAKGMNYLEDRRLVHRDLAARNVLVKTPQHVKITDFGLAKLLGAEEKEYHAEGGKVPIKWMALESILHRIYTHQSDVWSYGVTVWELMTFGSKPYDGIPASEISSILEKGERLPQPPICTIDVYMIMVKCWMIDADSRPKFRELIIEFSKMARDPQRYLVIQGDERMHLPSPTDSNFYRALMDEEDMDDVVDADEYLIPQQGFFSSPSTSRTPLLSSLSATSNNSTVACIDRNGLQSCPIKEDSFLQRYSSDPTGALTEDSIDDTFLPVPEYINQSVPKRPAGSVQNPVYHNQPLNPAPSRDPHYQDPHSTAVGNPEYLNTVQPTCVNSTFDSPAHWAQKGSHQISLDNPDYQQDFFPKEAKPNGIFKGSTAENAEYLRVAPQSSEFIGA
Data set [7] addresses Protein kinase C gamma type (Homo sapiens) (UniProt P05129). Kind of data set: Inhibition of PKCgamma (unknown origin) at 1 uM after 60 mins by Z-LYTE assay relative to control.
Data set [8] has as its target Tyrosine-protein kinase BTK (Homo sapiens) (UniProt Q06187). Kind of data set: Inhibition of BTK (unknown origin) at 1 uM after 60 mins by Z-LYTE assay.
For data set [9], the species on record is Homo sapiens. Put plainly: Inhibition of IL10/JAK/STAT3 signaling in human PBMC assessed as reduction in LPS-induced IL6 production at 100 nM preincubated for 2 hrs followed by LPS stimulation measured after 24 hrs by ELISA.
Data set [10] deals with T1, Tyrosine-protein kinase ITK/TSK (Homo sapiens) (UniProt Q08881).
T1 sequence (whole entry): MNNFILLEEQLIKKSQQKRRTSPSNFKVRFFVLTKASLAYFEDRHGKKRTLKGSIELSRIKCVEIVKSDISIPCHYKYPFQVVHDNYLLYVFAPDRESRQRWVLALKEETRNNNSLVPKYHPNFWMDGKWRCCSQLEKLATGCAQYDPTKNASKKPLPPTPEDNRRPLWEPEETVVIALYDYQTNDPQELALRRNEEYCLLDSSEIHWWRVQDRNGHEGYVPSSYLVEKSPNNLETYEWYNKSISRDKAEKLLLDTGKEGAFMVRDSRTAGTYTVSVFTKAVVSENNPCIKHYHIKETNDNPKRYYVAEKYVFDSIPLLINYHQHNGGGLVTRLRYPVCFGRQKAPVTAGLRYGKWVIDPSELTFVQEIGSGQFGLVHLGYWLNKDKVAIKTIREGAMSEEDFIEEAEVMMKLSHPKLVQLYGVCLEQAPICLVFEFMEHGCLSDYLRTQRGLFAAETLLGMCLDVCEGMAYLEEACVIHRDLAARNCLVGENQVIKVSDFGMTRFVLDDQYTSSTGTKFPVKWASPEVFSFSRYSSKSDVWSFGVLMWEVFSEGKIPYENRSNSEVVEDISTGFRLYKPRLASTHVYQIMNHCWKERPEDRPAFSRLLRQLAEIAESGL
Put plainly: Inhibition of ITK (unknown origin) at 1 uM after 60 mins by Z-LYTE assay.

The source made the active and inactive calls. The calls are words filed in the database; no cut-off is given here. Where only a bound is given, the exact number is not on record here.

The term CL/F denotes the apparent clearance, not corrected for the fraction that reaches the circulation. The term inhibition denotes the change of the read-out against control, counted positive when it falls.

Sequence of Tyrosine-protein kinase BTK (Homo sapiens) (Q06187 whole entry): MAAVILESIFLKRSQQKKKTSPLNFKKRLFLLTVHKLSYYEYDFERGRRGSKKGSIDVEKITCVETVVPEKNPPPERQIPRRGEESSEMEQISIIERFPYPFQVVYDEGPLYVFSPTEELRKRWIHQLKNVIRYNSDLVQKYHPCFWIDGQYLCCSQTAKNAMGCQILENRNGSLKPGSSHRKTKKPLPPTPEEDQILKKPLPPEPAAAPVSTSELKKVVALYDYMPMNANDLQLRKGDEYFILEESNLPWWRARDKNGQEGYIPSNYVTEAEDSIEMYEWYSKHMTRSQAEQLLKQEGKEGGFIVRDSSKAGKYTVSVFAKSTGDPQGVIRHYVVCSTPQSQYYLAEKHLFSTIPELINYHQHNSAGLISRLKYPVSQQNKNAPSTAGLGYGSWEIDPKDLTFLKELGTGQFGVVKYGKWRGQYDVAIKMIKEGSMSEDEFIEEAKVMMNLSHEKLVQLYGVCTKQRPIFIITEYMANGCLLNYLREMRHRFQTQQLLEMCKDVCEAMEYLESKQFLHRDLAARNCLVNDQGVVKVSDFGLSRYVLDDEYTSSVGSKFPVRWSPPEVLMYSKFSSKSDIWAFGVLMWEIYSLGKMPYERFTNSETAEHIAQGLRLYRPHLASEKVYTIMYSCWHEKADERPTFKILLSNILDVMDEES

On to `C=CC(=O)N1CCN(c2ccc([N+](=O)[O-])c(C3=C(c4c[nH]c5ccccc45)C(=O)NC3=O)c2)CC1`, for which the CL/F in [1] stood at 8.31 L/h/kg. For the same molecule, the inhibition in data set [2], in [3] and in [7] was more than 80% throughout. The outcome in data set [4] was inactive. In addition, the inhibition entry in [5], in [6], in [8], in data set [9] and in [10] was “Active” each time.

For the molecule `CC(C)(O)C(=O)N1CCN(c2ccc(C(F)(F)F)c(C3=C(c4c[nH]c5ccccc45)C(=O)NC3=O)c2)CC1`, the outcome in [4] was inactive. In addition, the inhibition result in data set [5] and in data set [9] was “Active” each time.

`C=CC(=O)N1C[C@H](Nc2ncnc3[nH]ccc23)CC[C@@H]1C`: the result in [4] was inactive. In addition, the inhibition result in [5] and in data set [9] was “Active” in each case.

The values above are taken from ChEMBL document CHEMBL4330124, “Discovery of an Orally Available Janus Kinase 3 Selective Covalent Inhibitor” (J Med Chem, 2019).
